According to the supplement of paper PMC10627819:

What was measured:
[1] = test system: B. subtilis 168; test: fitness (endpoint OD595 vs no drug) (fraction); higher = more growth
Summary of the method: (§1)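 Bacterial growth was followed in 384-well plates seeded at OD595 0.01, with 30 µl per well, or 55 µl for S. pneumoniae, in TSB, LB Lennox or CY at 37 °C. OD595 was read every 30 min for 14 h, and each reading had the first reading subtracted as background. Fitness is the background-corrected optical density at entry into stationary phase divided by the robust mean of the no-drug control wells. This ratio is capped at 1.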

[2] = test system: S. aureus DSM 20231; test: as above
Summary of the method: as §1

[3] = test system: S. pneumoniae D39V; test: as above
Summary of the method: as §1

[4] = test system: B. subtilis 168; test: Bliss interaction score (quartile over a dose matrix) (fitness difference); higher = more antagonism (negative = synergy)
Summary of the method: (§2)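 The Bliss score subtracts expected fitness, the product of the single-drug fitness values, from observed fitness. Fitness is plate-normalised OD595 at entry into stationary phase, relative to the robust no-drug mean and capped at 1, with single-drug fitness inferred from combinations. Summaries are quartiles over technical, biological and donor/recipient replicates.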

[5] = test system: S. aureus DSM 20231; test: as above
Summary of the method: as §2

[6] = test system: S. aureus Newman; test: as above
Summary of the method: as §2

[7] = test system: S. pneumoniae D39V; test: as above
Summary of the method: as §2
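For Bliss interaction score (quartile over a dose matrix) in this document: first quartile when negative (synergy) and third quartile when positive (antagonism).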

CC(=O)NC[C@H]1CN(c2ccc(N3CCOCC3)c(F)c2)C(=O)O1 [Linezolid] + CC1=C\[C@@H](O)CC(=O)Cc2nc(co2)C(=O)N2CCC=C2C(=O)O[C@H](C(C)C)[C@H](C)/C=C/C(=O)NC\C=C\1 [Virginiamycin M1]
one replicate
Settings | fitness
[1], first compound 0.0625 µg/mL, partner 0.0625 µg/mL | 0.851
[1], first compound 0.0625 µg/mL, partner 0.125 µg/mL | 0.915
[1], first compound 0.0625 µg/mL, partner 0.25 µg/mL | 0.879
[2], first compound 0.125 µg/mL, partner 0.5 µg/mL | 0.873
[2], first compound 0.125 µg/mL, partner 1 µg/mL | 0.759
[2], first compound 0.25 µg/mL, partner 0.5 µg/mL | 0.675
[2], first compound 0.25 µg/mL, partner 1 µg/mL | 0.63
[2], first compound 0.5 µg/mL, partner 0.5 µg/mL | 0.262
[2], first compound 0.5 µg/mL, partner 1 µg/mL | 0.296
[2], first compound 1 µg/mL, partner 0.0625 µg/mL | 0.0385
[2], first compound 1 µg/mL, partner 0.125 µg/mL | 0.0443
[2], first compound 1 µg/mL, partner 0.25 µg/mL | 0.0419
[3], first compound 0.2 µg/mL, partner 0.15 µg/mL | 0.829
[3], first compound 0.2 µg/mL, partner 0.3 µg/mL | 0.825
[3], first compound 0.2 µg/mL, partner 0.5 µg/mL | 0.861
[3], first compound 0.2 µg/mL, partner 1 µg/mL | 0.81
[3], first compound 0.4 µg/mL, partner 0.15 µg/mL | 0.738
[3], first compound 0.4 µg/mL, partner 0.3 µg/mL | 0.721
[3], first compound 0.4 µg/mL, partner 0.5 µg/mL | 0.785
[3], first compound 0.4 µg/mL, partner 1 µg/mL | 0.67
[3], first compound 0.8 µg/mL, partner 0.15 µg/mL | 0.546
[3], first compound 0.8 µg/mL, partner 0.3 µg/mL | 0.577
[3], first compound 0.8 µg/mL, partner 0.5 µg/mL | 0.562
[3], first compound 0.8 µg/mL, partner 1 µg/mL | 0.376

Settings | fitness
[1], first compound 0.125 µg/mL, partner 0.0625 µg/mL | 0.57
[1], first compound 0.125 µg/mL, partner 0.125 µg/mL | 0.572
[1], first compound 0.125 µg/mL, partner 0.25 µg/mL | 0.578
[1], first compound 0.25 µg/mL, partner 0.0625 µg/mL | 0.0596
[1], first compound 0.25 µg/mL, partner 0.125 µg/mL | 0.0652
[1], first compound 0.25 µg/mL, partner 0.25 µg/mL | 0.0843
[1], first compound 0.5 µg/mL, partner 0.0625 µg/mL | 0.0436
[1], first compound 0.5 µg/mL, partner 0.125 µg/mL | 0.0429
[1], first compound 0.5 µg/mL, partner 0.25 µg/mL | 0.0502
[2], first compound 0.125 µg/mL, partner 0.0625 µg/mL | 0.884
[2], first compound 0.125 µg/mL, partner 0.125 µg/mL | 0.951
[2], first compound 0.125 µg/mL, partner 0.25 µg/mL | 0.826
[2], first compound 0.25 µg/mL, partner 0.0625 µg/mL | 0.589
[2], first compound 0.25 µg/mL, partner 0.125 µg/mL | 0.614
[2], first compound 0.25 µg/mL, partner 0.25 µg/mL | 0.638
[2], first compound 0.5 µg/mL, partner 0.0625 µg/mL | 0.186
[2], first compound 0.5 µg/mL, partner 0.125 µg/mL | 0.156
[2], first compound 0.5 µg/mL, partner 0.25 µg/mL | 0.196
[3], first compound 0.105 µg/mL, partner 0.5 µg/mL | 0.849
[3], first compound 0.105 µg/mL, partner 1 µg/mL | 0.881
[3], first compound 0.105 µg/mL, partner 2 µg/mL | 0.856
[3], first compound 0.2 µg/mL, partner 2 µg/mL | 0.775
[3], first compound 0.21 µg/mL, partner 0.5 µg/mL | 0.763
[3], first compound 0.21 µg/mL, partner 1 µg/mL | 0.756
[3], first compound 0.21 µg/mL, partner 2 µg/mL | 0.769
[3], first compound 0.4 µg/mL, partner 2 µg/mL | 0.677
[3], first compound 0.42 µg/mL, partner 0.5 µg/mL | 0.496
[3], first compound 0.42 µg/mL, partner 1 µg/mL | 0.486
[3], first compound 0.42 µg/mL, partner 2 µg/mL | 0.39
[3], first compound 0.8 µg/mL, partner 2 µg/mL | 0.458

Settings | Bliss interaction score
[4] | 0.0733
[5] | 0.0505
[6] | 0.0286
[7] | -0.0638

CC(=O)NC[C@H]1CN(c2ccc(N3CCOCC3)c(F)c2)C(=O)O1 [Linezolid] + CCN(CC)CCOC(=O)c1ccc(N)cc1 [Procaine]
fitness, one replicate
Settings | partner 85.5 µg/mL | partner 171 µg/mL | partner 342 µg/mL
[1], first compound 0.0625 µg/mL | 0.828 | 0.846 | 0.858
[2], first compound 1 µg/mL | 0.0561 | 0.0334 | 0.05
[3], first compound 0.2 µg/mL | 0.792 | 0.839 | 0.778
[3], first compound 0.4 µg/mL | 0.609 | 0.669 | 0.621
[3], first compound 0.8 µg/mL | 0.245 | 0.335 | 0.271

fitness
Settings | first compound 0.105 µg/mL | first compound 0.125 µg/mL | first compound 0.21 µg/mL | first compound 0.25 µg/mL | first compound 0.42 µg/mL | first compound 0.5 µg/mL
[1], partner 85.5 µg/mL | – | 0.587 | – | 0.101 | – | 0.022
[1], partner 171 µg/mL | – | 0.613 | – | 0.0992 | – | 0.0423
[1], partner 342 µg/mL | – | 0.569 | – | 0.0813 | – | 0.0154
[2], partner 85.5 µg/mL | – | 0.839 | – | 0.574 | – | 0.15
[2], partner 171 µg/mL | – | 0.832 | – | 0.643 | – | 0.193
[2], partner 342 µg/mL | – | 0.768 | – | 0.582 | – | 0.143
[3], partner 85.5 µg/mL | 0.824 | – | 0.728 | – | 0.579 | –
[3], partner 171 µg/mL | 0.816 | – | 0.719 | – | 0.569 | –
[3], partner 342 µg/mL | 0.801 | – | 0.699 | – | 0.535 | –

Settings | Bliss interaction score
[4] | 0.0668
[5] | -0.0676
[6] | 0.111
[7] | 0.0684

CC(=O)NC[C@H]1CN(c2ccc(N3CCOCC3)c(F)c2)C(=O)O1 [Linezolid] + CN1C2=CC=CC=C2N=C3C1=CC=CC3=O [Pyocyanin]
one replicate
Settings | fitness
[1], first compound 0.0625 µg/mL, partner 1.25 µg/mL | 0.804
[1], first compound 0.0625 µg/mL, partner 2.5 µg/mL | 0.749
[1], first compound 0.0625 µg/mL, partner 5 µg/mL | 0.594
[2], first compound 1 µg/mL, partner 1.25 µg/mL | 0.0458
[2], first compound 1 µg/mL, partner 2.5 µg/mL | 0.0282
[2], first compound 1 µg/mL, partner 5 µg/mL | 0.0258
[3], first compound 0.2 µg/mL, partner 0.325 µg/mL | 0.892
[3], first compound 0.2 µg/mL, partner 0.65 µg/mL | 0.824
[3], first compound 0.4 µg/mL, partner 0.325 µg/mL | 0.745
[3], first compound 0.4 µg/mL, partner 0.65 µg/mL | 0.745
[3], first compound 0.8 µg/mL, partner 0.325 µg/mL | 0.483
[3], first compound 0.8 µg/mL, partner 0.65 µg/mL | 0.603

Settings | fitness
[1], first compound 0.125 µg/mL, partner 1.25 µg/mL | 0.563
[1], first compound 0.125 µg/mL, partner 2.5 µg/mL | 0.544
[1], first compound 0.125 µg/mL, partner 5 µg/mL | 0.466
[1], first compound 0.25 µg/mL, partner 2.5 µg/mL | 0.093
[1], first compound 0.25 µg/mL, partner 5 µg/mL | 0.131
[1], first compound 0.5 µg/mL, partner 1.25 µg/mL | 0.027
[1], first compound 0.5 µg/mL, partner 2.5 µg/mL | 0.0397
[1], first compound 0.5 µg/mL, partner 5 µg/mL | 0.0383
[2], first compound 0.125 µg/mL, partner 1.25 µg/mL | 0.768
[2], first compound 0.125 µg/mL, partner 2.5 µg/mL | 0.829
[2], first compound 0.125 µg/mL, partner 5 µg/mL | 0.546
[2], first compound 0.25 µg/mL, partner 1.25 µg/mL | 0.559
[2], first compound 0.5 µg/mL, partner 1.25 µg/mL | 0.208
[2], first compound 0.5 µg/mL, partner 2.5 µg/mL | 0.143
[2], first compound 0.5 µg/mL, partner 5 µg/mL | 0.0745
[3], first compound 0.105 µg/mL, partner 0.325 µg/mL | 0.858
[3], first compound 0.105 µg/mL, partner 0.65 µg/mL | 0.882
[3], first compound 0.105 µg/mL, partner 1.3 µg/mL | 0.632
[3], first compound 0.21 µg/mL, partner 0.325 µg/mL | 0.773
[3], first compound 0.21 µg/mL, partner 0.65 µg/mL | 0.775
[3], first compound 0.21 µg/mL, partner 1.3 µg/mL | 0.608
[3], first compound 0.42 µg/mL, partner 0.325 µg/mL | 0.605
[3], first compound 0.42 µg/mL, partner 0.65 µg/mL | 0.589
[3], first compound 0.42 µg/mL, partner 1.3 µg/mL | 0.389

Settings | Bliss interaction score
[4] | 0.109
[5] | 0.047
[6] | -0.0368
[7] | 0.118
